From patent publication US20210338647A1, “Combination of Acetylcholinesterase Inhibitor and 5-HT4 Receptor Agonist As Neuroprotective Agent In the Treatment of Neurodegenerative Diseases” (UNIVERSITE DE CAEN NORMANDIE, priority 2018, published 2021)
Marks after values point to notes of the source that are not given here.

Key:
[1] = tested on: rat primary hippocampal neurons injured with Aβ 1-42; test: Neurite network of MAP-2 neurons in primary culture of hippocampal neurons injured with Aβ 1-42; format: cell-based; conditions: for Neurite network / Neurite/neuron: Aβ1-42 20 μM/2.5 μM, percentage of control, Example 3
Procedure: Rat hippocampal neurons were cultured as described by Callizot et al. (2013) J. Neurosci. Res. 91706-716. Pregnant female rats of 17 days gestation (Rats Wistar; Janvier Labs France) were killed using a deep anesthesia with CO2 chamber followed by a cervical dislocation. Then, fetuses were removed from the uterus and immediately placed in ice-cold L15 Leibovitz medium with a 2% penicillin (10,000 U/ml) and streptomycin (10 mg/ml) solution (PS) and 1% bovine serum albumin (BSA). Hippocampal neurons were treated for 20 min at 37° C. with a trypsin-EDTA solution at a final concentration of 0.05% trypsin and 0.02% EDTA. The dissociation was stopped by adding Dulbecco's modified Eagle's medium (DMEM) with 4.5 g/l of glucose, containing DNAse I grade 11 (final concentration 0.5 mg/ml) and 10% fetal calf serum (FCS). Cells were mechanically dissociated by three forced passages through the tip of a 10-ml pipette and then centrifuged at 515×g for 10 min at 4° C. The supernatant was discarded, and the pellet was resuspended in a defined culture medium consisting of Neurobasal medium with a 2% solution of B27 supplement, 2 mmol/l of L-glutamine, 2% of PS solution, and 10 ng/ml of brain-derived neurotrophic factor (BDNF). Viable cells were counted in a Neubauer cytometer, using the trypan blue exclusion test. […] The medium was changed every 2 days.
The hippocampal neurons were exposed with Aβ solutions (see below) after 17 days of culture. The Aβ1-42 preparation was done following the procedure described by Callizot et al. (2013) J. Neurosci. Res. 91706-716. Briefly, Aβ1-42 peptide was dissolved in the defined culture medium mentioned above, at an initial concentration of 40 μM. This solution was gently agitated for 3 days at 37° C. in the dark and immediately used after being properly diluted in culture medium to the concentrations used (20 μM (plate 1) or 2.5 μM (plate 2) corresponding to 2 μM or 0.25 μM of oligomers (AβO) respectively).
Donecopride fumarate was solved in culture medium and preincubated 1 h before Aβ application. Aβ1-42 preparation was added to a final concentration of 20 or 2.5 μM (=2 μM or 0.25 μM of AβO, evaluated by automatic Western Blot) diluted in control medium in presence of Donecopride.
Donecopride fumarate (Donecopride) was tested on one culture in a 96 well plate (6 wells per conditions). The compound was preincubated one hour before […] application. The following conditions were assessed:
After permeabilization with 0.1% of saponin, cells were incubated for 2 h with:
a) chicken polyclonal antibody anti microtubule-associated-protein 2 (MAP-2), diluted at 1/1000 in PBS containing 1% fetal calf serum and 0.1% of saponin (this antibody allows the specific staining of neuronal cell bodies and neurites; and allow the study of neuronal cell death and neurite network).
For each condition, 30 pictures (representative of the whole well area) per well were taken using ImageXpress (Molecular Devices) at 20× magnification. All images were taken with the same acquisition parameters. Analyses were performed automatically by using Custom Module Editor (Molecular Devices).
Neurite network (in μm of MAP-2 positive neurons)
The neurite network is proportional to the number of neurons in the culture. The total neurite network was normalized by the number of neurons, in order to determine the average length of neurite per neurons.
Rat hippocampal neurons were cultured as described by Callizot et al. (2013) J. Neurosci. Res. 91:706-716. Briefly, pregnant female rats of 17 days gestation (Rats Wistar; Janvier Labs France) were killed using a deep anesthesia with CO2 chamber and a cervical dislocation. Then, fetuses were removed from the uterus and immediately placed in ice-cold L15 Leibovitz medium with a 2% penicillin (10,000 U/ml) and streptomycin (10 mg/ml) solution (PS) and 1% bovine serum albumin (BSA). The hippocampi were treated for 20 min at 37° C. with a trypsin-EDTA solution at a final concentration of 0.05% trypsin and 0.02% EDTA. […]

[2] = tested on: 5XFAD mice; test: Astrogliosis (GFAP staining) in brain sections of 5XFAD mice; format: in vivo, mouse; conditions: 1 mg/kg twice a week for 3 months, versus controls
Procedure: (§1) 5XFAD mice received chronic treatments with drugs or vehicle according to 2 different protocols. In each experiment, drugs or vehicle solution were administered i.p. twice a week (1 mg/kg). In “Protocol 1”, mice (n=6-7 mice per group) were treated with compounds for two months, from 2 to 4 months of age. In “Protocol 2”, mice (n=7) were treated with compounds for three months, from 1 month to 4 months of age. At the end of each protocol, mice were anesthetized with a mixture of 100 mg/kg ketamine and 10 mg/kg xylazine in saline solution and perfused transcardially with PBS. Brains were quickly isolated on ice, the olfactory bulbs and cerebellum removed and the two hemispheres divided. One hemisphere was frozen on dry ice and stored at −80° C. for biochemical analysis, while the other was post-fixed in 4% PFA for immunohistochemistry (IHC).
Thirty-micrometer-thick sections were cut using a vibratome (Microm HM 650V, Thermo Scientific, Saint Herblain, France) and stored in cryoprotectant medium at −20° C. For the labeling of amyloid plaques, free-floating tissue sections of frontal cortex, hippocampus and entorhinal cortex (coordinates from the bregma: frontal cortex=1.98 mm, hippocampus=−1.94 mm, entorhinal cortex=−3.08 mm) were extensively washed in PBS and then incubated in blocking solution (PBS; 3% BSA; 0.1% Triton X-100) for 1 h. Sections were stained with Hoechst dye (1:1000, Life Technologies, Saint Aubin, France) for 15 minutes to detect cell nuclei and then with freshly prepared thioflavin T solution (#T3516-5G, Sigma-Aldrich) (final concentration: 0.01 mg/ml in blocking buffer) for 15 minutes. After washing in 70% ethanol for 5 minutes, samples were mounted on poly-lysine slides with coverslips. For GFAP (glial fibrillary acidic protein) staining, free-floating brain sections were blocked as before and incubated with polyclonal rabbit anti-GFAP (1:1000, Z0334, Dako, Les Ullis, France) at 4° C. overnight. After thioflavin T staining and washing with 70% ethanol, the secondary Alexafluor 594 goat anti-rabbit antibody (1:1000, A11012, Life Technologies) was added for 2 h. PBS washes and mounting were performed as described before.
Images were acquired with an Axiolmager Z1 microscope (Carl Zeiss S.A.S., Marly le Roi, France). Analysis of thioflavin T staining was performed blindly and data are presented as the mean number of particles per mm^2 in two to three tissue sections from the same brain area/animal (Image J software). GFAP expression was quantified using Image J software and results are expressed as area fractions.
(§2) 28 female 5XFAD mice (C57BL/6J genetic background) were used in this study. Mice received vehicle or compounds (1 mg/kg) i.p., twice a week for three months, from 1 to 4 months of age.

[3] = tested on: 5XFAD mice; test: Novel object recognition test in chronically treated 5XFAD mice; format: in vivo, mouse; conditions: 5XFAD females; 1 mg/kg twice a week for 3 months; 24 h interval between training and test
Procedure: as §1, §2

Q: `COc1cc2c(cc1OC)C(=O)C(CC1CCN(Cc3ccccc3)CC1)C2` (stereo not drawn) [Donepezil] was tested. Which Neurite network ([1]; donepezil 100 pM) did it give?
A: 68%

Q: What about the Neurite/neuron ([1]; donepezil 100 pM) of the same molecule?
A: 99%

Q: What about the Neurite network ([1]; donepezil 1 nM) of the same molecule?
A: 75%*

Q: What about the Neurite/neuron ([1]; donepezil 1 nM) of the same molecule?
A: 99%

Q: What about the Neurite network ([1]; donepezil 10 nM) of the same molecule?
A: 79%*

Q: And the Neurite/neuron ([1]; donepezil 10 nM)?
A: 91%

Q: And the Neurite network ([1]; donepezil 50 nM)?
A: 85%*

Q: And the Neurite/neuron ([1]; donepezil 50 nM)?
A: 94%

Q: What about the Neurite network ([1]; donepezil 100 nM) of the same molecule?
A: 85%*

Q: What about the Neurite/neuron ([1]; donepezil 100 nM) of the same molecule?
A: 94%

Q: And the Neurite network ([1]; donepezil 500 nM)?
A: 87%*

Q: What about the Neurite/neuron ([1]; donepezil 500 nM) of the same molecule?
A: 101%

Q: What about the Neurite network ([1]; donepezil 1 μM) of the same molecule?
A: 90%*

Q: And the Neurite/neuron ([1]; donepezil 1 μM)?
A: 105%*

Q: What about the Neurite network ([1]; donepezil 10 μM) of the same molecule?
A: 88%*

Q: And the Neurite/neuron ([1]; donepezil 10 μM)?
A: 103%*

Q: Which “GFAP staining in frontal cortex” value [2] does the source give for `CCCCN1CCC(CCC(=O)c2cc(Cl)c(N)cc2OC)CC1` [RS67333, 1-(4-amino-5-chloro-2-methoxy-phenyl)-3-(1-butyl-4-piperidinyl)-1-propanone] here?
A: not significantly different compared to controls

Q: What about the “GFAP staining in hippocampus” value [2] of the same molecule?
A: not significantly different compared to controls

Q: What about the “Lowest protective active dose: neurite network” value ([1]; Aβ 1-42 injured hippocampal neurons, Example 3 step 1) of the same molecule?
A: 10 nM

Q: What about the “Average length of neurites per neurons (FIG. 1C)” value ([1]; RS67333 alone, Aβ 1-42 injured hippocampal neurons, Example 3 step 1) of the same molecule?
A: protective effects

Q: And the “Recognition memory: time exploring novel versus familiar object (NOR test)” value [3]?
A: reverses cognitive impairment
